{"source": "patent US20120282258A1", "about": "“CRLF2 IN PRECURSOR B-CELL ACUTE LYMPHOBLASTIC LEUKEMIA” (DANA-FARBER CANCER INSTITUTE, INC., priority 2009, published 2012)", "molecules": {"B1": {"name": "CRLF2 Phe232Cys (F232C mutant of human CRLF2) (receptor)", "chain": "QGGAAEGVQIQIIYFNLETVQVTWNASKYSRTNLTFHYRFNGDEAYDQCTNYLLQEGHTSGCLLDAEQRDDILYFSIRNGTHPVFTASRWMVYYLKPSSPKHVRFSWHQDAVTVTCSDLSYGDLLYEVQYRSPFDTEWQSKQENTCNVTIEGLDAEKCYSFWVRVKAMEDVYGPDTYPSDWSEVTCWQRGEIRDACAETPTPPKPKLSKCILISSLAILLMVSLLLLSLWKLWRVKKFLIPSVPDPKSIFPGLFEIHQGNFQEWITDTQNVAHLHKMAGAEQESGPEEPLVVQLAKTEAESPRMLDPQTEEKEASGGSLQLPHQPLQGGDVVTIGGFTFVMNDRSYVAL", "notes": "Expressed in BaF3 cells; also called CRLF2 F232C; CRLF2 711T>G"}, "B2": {"name": "wild-type human cytokine receptor-like factor 2 (CRLF2) (receptor)", "chain": "QGGAAEGVQIQIIYFNLETVQVTWNASKYSRTNLTFHYRFNGDEAYDQCTNYLLQEGHTSGCLLDAEQRDDILYFSIRNGTHPVFTASRWMVYYLKPSSPKHVRFSWHQDAVTVTCSDLSYGDLLYEVQYRSPFDTEWQSKQENTCNVTIEGLDAEKCYSFWVRVKAMEDVYGPDTYPSDWSEVTCWQRGEIRDACAETPTPPKPKLSKFILISSLAILLMVSLLLLSLWKLWRVKKFLIPSVPDPKSIFPGLFEIHQGNFQEWITDTQNVAHLHKMAGAEQESGPEEPLVVQLAKTEAESPRMLDPQTEEKEASGGSLQLPHQPLQGGDVVTIGGFTFVMNDRSYVAL", "notes": "Expressed by retrovirus in BaF3 cells and detected by immunoblot of the cells; also called wt CRLF2; CRL2"}}, "key": {"[1]": {"tested_on": "BaF3-CRLF2 Phe232Cys cells", "assay": "Toxicity of agents with activity against PKC family kinases in BaF3 cells", "assay_type": "cell-based, murine"}, "[2]": {"tested_on": "BaF3 cells expressing CRLF2 Phe232Cys", "assay": "Viability of BaF3 cells exposed to JAK inhibitor-1 for 72 hours, relative to vehicle", "assay_type": "cell-based, murine", "details": "no cytokines, FIG. 5", "description": "(§1) FIG. 5 is a graph depicting signal activation and dependence on JAK signaling. BaF3 cells that stably express BCR/ABL, CRLF2 and/or JAK2 were grown in the absence of cytokines. +IL3 indicates unmodified BaF3 cells grown in the presence of 500 pg/mL IL-3. Data represents the ratio of viable cells exposed to JAK inhibitor-1 (Calbiochem) at varying concentrations for 72 hours, compared to the same cell line exposed to vehicle. Error bars indicate one standard deviation.\n(§2) As expected, TSLP had no effect on STAT5, ERK or JAK2 phosphorylation in cells with mutant CRLF2 or JAK2 proteins."}, "[3]": {"tested_on": "BaF3 cells expressing CRLF2/mutant JAK2", "assay": "Viability of BaF3 cells exposed to JAK inhibitor-1 for 72 hours, relative to vehicle", "assay_type": "cell-based, murine", "details": "BaF3 CRLF2/mutant JAK2, no cytokines, FIG. 5", "description": "as §1, §2"}, "[4]": {"tested_on": "STAT5, ERK or JAK2 phosphorylation in cells with mutant CRLF2 or JAK2 proteins", "assay": "Phosphorylation of STAT5, ERK and JAK2 in BaF3 cells treated with TSLP", "assay_type": "cell-based, murine", "from_the_text": "In BaF3 cells, both CRLF2 Phe232Cys and CRLF2/mutant JAK2 promoted the phosphorylation of the JAK targets STAT5 and ERK.\nas §2"}, "[5]": {"tested_on": "phospho-JAK2 in CRLF2/IL-7R cells", "assay": "Phospho-JAK2 in CRLF2/IL-7R cells treated with TSLP", "assay_type": "cell-based, murine", "from_the_text": "as §2"}, "[6]": {"tested_on": "BaF3 cells expressing CRLF2 Phe232Cys", "assay": "In vitro cell growth in the absence of IL-3 with TSLP added", "assay_type": "cell-based, murine", "details": "TSLP 1 ng/mL added at day 0, FIG. 3", "description": "(§3) FIG. 3 is a group of four graphs depicting in vitro cell growth of UT7 cells and BaF cells that stably express CRLF2 and/or JAK2 alleles grown in the absence of GM-CSF (UT7) or IL-3 (BaF3). For the bottom right panel, TSLP 1 ng/mL was added at day 0, as indicated. Growth is the number of viable cells relative to the number of cells initially seeded on day 0. Error bars represent one standard deviation.\n(§4) Unlike cells that express CRLF2/IL-7R, the addition of TSLP had no effect on the growth of BaF3 cells expressing CRLF2 Phe232Cys (FIG. 3)."}, "[7]": {"tested_on": "BaF3 cells that express CRLF2/mutant JAK2", "assay": "In vitro cell growth in the absence of IL-3 with TSLP added", "assay_type": "cell-based, murine", "description": "as §3, §4"}, "[8]": {"tested_on": "BaF3 cells that express CRLF2 Phe232Cys/IL-7R", "assay": "In vitro cell growth in the absence of IL-3 with TSLP added", "assay_type": "cell-based, murine", "details": "BaF3 CRLF2 Phe232Cys/IL-7R, TSLP 1 ng/mL added at day 0, FIG. 3", "description": "as §3, §4"}, "[9]": {"target": "the molecule itself", "assay": "immunoblot of BaF3 cells under reducing and non-reducing conditions (homodimer)", "description": "(§5) The CRLF2 Phe232 residue is near the junction of the extracellular and transmembrane domains. Mutations that introduce cysteine residues in this region of other receptor tyrosine kinases, such as RET, can activate signal transduction through intermolecular disulfide-bonded dimers. To confirm that CRLF2 Phe232Cys promotes constitutive dimerization, immunoblots in BaF3 cells expressing wild-type CRLF2 or CRLF2 Phe232Cys were performed under both reducing and non-reducing conditions. Under non-reducing conditions, the molecular weight of the CRLF2 Phe232Cys band, but not the wild-type band, was doubled, consistent with constitutive dimerization through the cysteine residues."}, "[10]": {"target": "the molecule itself", "assay": "immunoblot of BaF3 cells under reducing and non-reducing conditions (self-association)", "description": "as §5"}}}
{"molecule": "Cn1c2ccccc2c2c3c(c4c5ccccc5n(CCC#N)c4c21)CNC3=O", "note": "[Go6976]", "values": [{"measurement": "toxicity in BaF3-CRLF2 Phe232Cys cells as compared to BaF3 cells expressing wild-type CRLF2", "setting": "[1]", "value": "selective toxicity"}]}
{"molecule": "CO[C@@H]1[C@H](N(C)C(=O)c2ccccc2)C[C@H]2O[C@]1(C)n1c3ccccc3c3c4c(c5c6ccccc6n2c5c31)C(=O)NC4", "note": "[PKC412]", "values": [{"measurement": "toxicity in BaF3-CRLF2 Phe232Cys cells as compared to BaF3 cells expressing wild-type CRLF2", "setting": "[1]", "value": "selective toxicity"}]}
{"molecule": "CN[C@@H]1C[C@H]2O[C@@](C)([C@@H]1OC)n1c3ccccc3c3c4c(c5c6ccccc6n2c5c31)C(=O)N[C@@H]4O", "note": "[UCN-01]", "values": [{"measurement": "toxicity in BaF3-CRLF2 Phe232Cys cells as compared to BaF3 cells expressing wild-type CRLF2", "setting": "[1]", "value": "selective toxicity"}]}
{"molecule": "COC(=O)[C@@]1(O)C[C@H]2O[C@]1(C)n1c3ccccc3c3c4c(c5c6ccccc6n2c5c31)C(=O)NC4", "note": "[k252a]", "values": [{"measurement": "toxicity in BaF3-CRLF2 Phe232Cys cells as compared to BaF3 cells expressing wild-type CRLF2", "setting": "[1]", "value": "selective toxicity"}]}
{"molecule": "CC(C)(C)c1nc2c3cc[nH]c(=O)c3c3cc(F)ccc3c2[nH]1", "note": "[small molecule JAK inhibitor]", "values": [{"measurement": "sensitivity of cells to JAK inhibitor (ratio of viable cells versus vehicle)", "setting": "[2]", "value": "highly sensitive"}, {"measurement": "sensitivity of cells to JAK inhibitor (ratio of viable cells versus vehicle)", "setting": "[3]", "value": "highly sensitive"}]}
{"molecule": "TSLP: thymic stromal lymphopoietin, cytokine ligand of the CRLF2/IL-7R heterodimer", "values": [{"measurement": "effect of TSLP on STAT5, ERK or JAK2 phosphorylation", "setting": "[4]", "value": "no effect"}, {"measurement": "phospho-JAK2 after TSLP treatment", "setting": "[5]", "value": "no detectable phospho-JAK2"}, {"measurement": "effect of TSLP on cell growth", "setting": "[6]", "value": "no effect"}, {"measurement": "effect of TSLP on cell growth", "setting": "[7]", "value": "did not promote the growth"}, {"measurement": "effect of TSLP on cell growth", "setting": "[8]", "value": "promoted the growth"}]}
{"molecule": "B1", "values": [{"measurement": "binding result", "setting": "[9]", "value": "binds"}]}
{"molecule": "B2", "values": [{"measurement": "binding result", "setting": "[10]", "value": "no binding"}]}
